Results reported in patent US12692259B2, “Morpholine-containing and piperazine-containing CXCR4 modulators and uses related thereto” (Emory University, priority 2021, dated 2026).
pIC50: −log10 of the molar value.

What was measured:
CXCR4 [1] = molecular target: T1, CXCR4 (Homo sapiens, UniProt P61073); assay: cAMP assay in CXCR4-CHO-Glo cells (GloSensor, forskolin + SDF-1α); type: cell-based; set-up: expressed in transfected cells
Description: Materials, reagents, and instrument—Advanced DMEM (Gibco), trypsin EDTA (0.05%, phenol red), L-glutamine, HBSS buffer with and without Ca^2+/Mg^2+ (Gibco), antibiotic-antimycotic (Gibco), hygromycin B, and geneticin selective antibiotic (G418 sulfate) were purchased from Invitrogen. Forskolin (Tocris), SDF-1α (R&D Systems), HEPES (Sigma Aldrich), FBS (Atlanta Biologicals), D-luciferin (Gold Biotechnology), sterile 60 mm tissue culture dishes, and 96-well sterile tissue culture plates were purchased from Corning.
The assay targeted CXCR4 expressed in CHO-gloSensor cells. It monitored GPCR activation based on forskolin-stimulated cAMP production in cells. The assay used a genetically encoded biosensor with its cAMP binding domain fused to luciferase. Binding of cAMP to the cAMP binding domain changed the conformation of the biosensor, leading to the activation of luciferase. The intensity of the luciferase signal (light output) resulted from the oxidation of D-luciferin to oxyluciferin is proportional to the amount of cAMP produced in the cells.
The assay was performed in triplicate using live cells in 96-well tissue culture plates. Cells were pre-incubated in the dark at room temperature for one hour in the presence of D-luciferin. Bioluminescence was quantified before and after the agonist/antagonist addition. Stock solution of forskolin and SDF-1a, was prepared in Locke-Luc buffer. Stock solutions of the test compounds were prepared in DMSO (10 mM); they were diluted by Locke's buffer for use in the assay.
CHO-Glo cells, a cell line stably expressing the GloSensor cAMP biosensor (Promega), were transfected with cDNA encoding human CXCR4 in Pires-AcGFP1 (Clontech) and a stable cell line was isolated (CXCR4-CHO-Glo cells). The CXCR4-CHO-Glo cells were grown to confluency on 60 mm tissue culture dishes. After trypsinization, the cells were plated on 96-well plates and incubated overnight. The next day, culture media in each well was aspirated and replaced with 100 μL Locke's buffer containing 4 mM D-luciferin, followed by incubation in the dark for one hour. Before the addition of agonist/antagonist, each plate was read five times at 2 min intervals to obtain basal bioluminescence values from each well. The average of these five pre-readings was used to normalize each well's response to account for differences in GloSensor expression and cell density. After five pre-readings, cAMP formation was initiated with the addition of 50 μL solution of test compound (TC) in Locke Luc buffer containing forskoline and SDF-1α. […] Luminescence was measured immediately after the addition of the antagonist solution. The measurements were taken every two minutes for 30 minutes in kinetics mode after antagonist addition. IC50 values were calculated from the 4-parameter logistic equation using Prism GraphPad.

CXCR4 [2] = molecular target: T1, CXCR4; assay: Calcium flux assay (antagonist mode, SDF-1α challenge); type: cell-based; set-up: Eurofins or Bristol Myers Squibb (contract assay); settings: read-out: CXCR4 Ca^+2 Flux IC50
Description: Calcium flux assay was performed by Eurofins or Bristol Myers Squibb. The method used by Eurofins is described below.
Compound plate preparation: Vehicle controls and positive controls were prepared to ensure all assays were properly controlled. All wells were prepared using the Eurofins Discovery Services GPCRProfiler® Assay Buffer. The GPCRProfiler® Assay Buffer was a modified Hanks Balanced Salt Solution (HBSS) where HBSS was supplemented to contain 20 mM HEPES and 2.5 mM Probenecid at pH 7.4.
Agonist assay (first addition): Compound(s) supplied were plated in duplicate for each concentration assayed. During the agonist assay, the concentration(s) reflects accommodation for the dilution of compound during the antagonist assay. Please see below for further details. […] The reference agonist for each GPCR was included at Emax (the concentration where the reference agonist elicited a maximal response). The agonist assay was conducted on a FLIPR^TETRA instrument where the test compound(s), vehicle controls, and reference agonist were added to the assay plate after a fluorescence/luminescence baseline was established. The agonist assay was a total of 180 seconds and was used to assess each compound's ability to activate each GPCR assayed. Upon completion of the three minute agonist assay, the assay plate was incubated at 25° C. for a further two minutes. After the incubation period the antagonist assay was initiated.
The antagonist assay was conducted using the same assay plate that was used for the agonist assay. The antagonist assay was conducted on a FLIPR^TETRA instrument where vehicle controls and challenge concentration of reference agonist were added to appropriate wells. The antagonist assay was a total of 180 seconds and was used to assess each compound's ability to inhibit each GPCR assayed.
Data Processing—All plates were subjected to appropriate baseline corrections. Once baseline corrections were processed, maximum fluorescence/luminescence values were exported, and data manipulated to calculate percentage activation and percentage inhibition. […] Data manipulation calculation is as followed: ((Max RLU)−(Baseline Avg.))/((Positive Avg.)−(Baseline Avg.)).

T1 sequence (P61073 whole entry): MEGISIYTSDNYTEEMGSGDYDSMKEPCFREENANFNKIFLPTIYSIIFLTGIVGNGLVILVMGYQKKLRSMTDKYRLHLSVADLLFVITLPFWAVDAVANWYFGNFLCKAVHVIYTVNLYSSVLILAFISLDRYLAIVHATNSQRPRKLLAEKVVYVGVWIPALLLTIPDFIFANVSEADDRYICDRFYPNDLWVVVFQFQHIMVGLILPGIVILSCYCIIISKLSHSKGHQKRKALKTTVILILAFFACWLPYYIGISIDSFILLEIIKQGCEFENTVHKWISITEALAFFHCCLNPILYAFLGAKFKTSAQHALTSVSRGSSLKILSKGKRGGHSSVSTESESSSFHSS

Structure (SMILES) | pIC50 (CXCR4 [1]) | pIC50 (CXCR4 [2])
CN(C[C@H]1Cc2c(cccc2N2CC3COC2C3)CN1)[C@H]1CCCc2cccnc21 (stereo in doubt) [EMU-324, (S)—N—(((R)-5-((1S,4R)-2-oxa-6-azabicyclo[2.2.1]heptan-6-yl)-1,2,3,4-tetrahydroisoquinolin-3-yl)methyl)-N-methyl-5,6,7,8-tetrahydroquinolin-8-amine] | 7.26 | 7.51
CN1CCN(c2cccc3c2C[C@@H](CN(C)[C@H]2CCCc4cccnc42)NC3)C(=O)C1 [EMU-251, 4-methyl-1-((S)-3-((methyl((S)-5,6,7,8-tetrahydroquinolin-8-yl)amino)methyl)-1,2,3,4-tetrahydroisoquinolin-5-yl)piperazin-2-one] | 6.61 | 6.69
CN(C[C@H]1Cc2c(cccc2N2CCNC(=O)C2)CN1)[C@H]1CCCc2cccnc21 [EMU-254, 4-((R)-3-((methyl((S)-5,6,7,8-tetrahydroquinolin-8-yl)amino)methyl)-1,2,3,4-tetrahydroisoquinolin-5-yl)piperazin-2-one] | 7.50 | 7.28
CN1CCN(c2cccc3c2C[C@H](CN(C)[C@H]2CCCc4cccnc42)NC3)CC1=O [EMU-255, 1-methyl-4-((R)-3-((methyl((S)-5,6,7,8-tetrahydroquinolin-8-yl)amino)methyl)-1,2,3,4-tetrahydroisoquinolin-5-yl)piperazin-2-one] | 7.16 | 6.65
CCOC(=O)N1CCN(c2cccc3c2C[C@H](CN(C)[C@H]2CCCc4cccnc42)NC3)CC1 [EMU-261, ethyl 4-((R)-3-((methyl((S)-5,6,7,8-tetrahydroquinolin-8-yl)amino)methyl)-1,2,3,4-tetrahydroisoquinolin-5-yl)piperazine-1-carboxylate] | 8.43 | 6.00
CC(=O)N1CCN(c2cccc3c2C[C@H](CN(C)[C@H]2CCCc4cccnc42)NC3)CC1 [EMU-262, 1-(4-((R)-3-((methyl((S)-5,6,7,8-tetrahydroquinolin-8-yl)amino)methyl)-1,2,3,4-tetrahydroisoquinolin-5-yl)piperazin-1-yl)ethan-1-one] | 7.84 | 7.25
CN(C[C@H]1Cc2c(cccc2N2CCN(S(C)(=O)=O)CC2)CN1)[C@H]1CCCc2cccnc21 [EMU-263, (S)—N-methyl-N—(((R)-5-(4-(methylsulfonyl)piperazin-1-yl)-1,2,3,4-tetrahydroisoquinolin-3-yl)methyl)-5,6,7,8-tetrahydroquinolin-8-amine] | 7.32 | 6.51
CN1CCN(c2cccc3c2CC(CN(C)[C@H]2CCOc4cccnc42)NC3)CC1 (stereo partly drawn) [EMU-320, (4S)—N-methyl-N-((5-(4-methylpiperazin-1-yl)-1,2,3,4-tetrahydroisoquinolin-3-yl)methyl)-3,4-dihydro-2H-pyrano[3,2-b]pyridin-4-amine] | 7.54 | 7.89
CN(C[C@H]1Cc2c(cccc2N2CCN3CCOC[C@H]3C2)CN1)[C@H]1CCCc2cccnc21 [EMU-343, (S)—N—(((R)-5-((R)-hexahydropyrazino[2,1-c][1,4]oxazin-8(1H)-yl)-1,2,3,4-tetrahydroisoquinolin-3-yl)methyl)-N-methyl-5,6,7,8-tetrahydroquinolin-8-amine] | 8.21 | 8.36
